Reference: US11304955B2, “Small-molecule povidone analogs in coamorphous pharmaceutical phases” (ISP INVESTMENTS LLC, priority 2017, dated 2022)

Legend:
[1] = format: physicochemical; details: for crystallinity of ROY sample on the basis of birefringence: coformer ground 1:1 molar with ROY (PVP K12, PVCap 1:1 by mass; ROY control without coformer), melted, cooled to room temperature overnight
Source text: Compounds 3-8 and VCap were all ground using a mortar and pestle in a 1:1 molar ratio with ROY. Comparative experiments were also undertaken in the same way with PVP (K12) (1) and PVCap (2) in a 1:1 ratio by mass with ROY. The samples were then placed on a microscope slide and covered with a thin, glass cover slip and heated using a hot stage optical microscope until all material had melted. The samples were then removed from the hot stage and allowed to cool to room temperature overnight. The cooled samples were examined under a microscope fitted with cross polarizing filters and assessed for crystallinity on the basis of birefringence.
(§1) A Linkam LTS420 heating stage attached to a Olympus XC50 microscope was used to heat the samples. Samples were placed on a glass microscope slide with a thin glass cover slide. For the amorphous material screening compounds were ground together in various drug to coformer ratio using 0.05 g of coformer in each case and heated at 30° C. min^−1 until the all of the sample had melted. Samples were then removed from the hot stage and allowed to cool. BisVCap was ground in 1:1 molar mixture with carbamazepine, carisoprodol, isoniazid and ROY. The carbamazepine/bisVCap sample was heated from room temperature to 170° C. at a rate of 10° C. min^−1, cooled at ° C. min^−1 to −40° C., then heated at 10° C. min^−1 to 165° C. The carisoprodol/bisVCap sample was heated from room temperature to 150° C. at a rate of 10° C. min^−1, cooled at ° C. min^−1 to −75° C., then heated at 10° C. min^−1 to 145° C. min^−1. The isoniazid/bisVCap sample was heated from room temperature to 175° C. at a rate of 10° C. min^−1, cooled at ° C. min^−1 to −100° C., then heated at 10° C. min^−1 to 125° C. min^−1. The ROY/bisVCap sample was heated from room temperature to 150° C. at a rate of 10° C. min^−1, cooled at ° C. min^−1 to −90° C., then heated at 10° C. min^−1 to 155° C. min^−1.

[2] = Heat-cool-heat cycles on hot stage with polarized light microscope; format: physicochemical; details: 1:1 mixture with bisVCap
Source text: The same heat-cool-heat cycles used in the DSC experiments were reproduced using a hot stage attached to a polarized light microscope for 1:1 mixtures of carisoprodol, carbamazepine, isoniazid and ROY with bisVCap.
as §1

[3] = Hot stage microscope experiments with increasing drug:bisVCap ratios; format: physicochemical; details: melted, cooled to room temperature
Experimental: One major problem with PVP as an amorphous stabilizer is that often a large amount is required for stabilization of the amorphous phase. This often leads to very large pills or dosage forms which consist of multiple tablets. Thus further hot stage microscope and DSC experiments of bisVCap mixtures with carisoprodol, carbamazepine, isoniazid and ROY were performed with increasing drug:bisVCap ratios to determine the minimum ratio of coformer required to maintain the API in an amorphous state.
For the microscope experiments the drugs and bisVCap were ground in the desired ratio, heated until all the sample had melted then cooled back to room temperature and analyzed by polarized light microscopy.
as §1

[4] = ground 1:1 mixture with bisVCap, heated to 150-180° C., cooled to −85° C., second heating cycle
[5] = Screening of bisVCap and bisVP with a range of drugs (hot stage melt, polarized optical microscopy); format: physicochemical; details: for crystallinity by polarized light microscopy, drug with bisVCap: drug:bisVCap 1:1 mol ratio, ground, melted, cooled, overnight / 18 hours at room temperature
Experimental: Control samples without lactam coformers were also prepared for comparison. The slides were then allowed to cool to room temperature. The samples were examined using polarized optical microscopy after storing them overnight and again two weeks after melting to assess their crystallinity. Polarized optical micrographs were observed.
as §1, with “For the amorphous material screening compounds were ground together in various drug to coformer ratio using 0.05 g of coformer in each case and heated at 30° C. min^−1 until the all of the sample had melted.” left out

[6] = Dynamic vapor sorption (DVS) water uptake; format: physicochemical; details: for hygroscopicity: DVS, small mass increase and lack of hysteresis; for mass increase in DVS plot: up to 90% relative humidity
Experimental: A significant issue with PVP as an amorphous stabilizer is its hydroscopicity, and amorphous materials are frequently hygroscopic. Dynamic vapor sorption (DVS) has been used to compare the water uptake of bisVCap and PVP. […] However, amorphous forms have more apparent solubility than crystal forms and it is possible that amorphous bisVCap could absorb much more water than the crystalline form.
DVS was performed using an SMS DVS-1 with a 10% RH step between humidity values with equilibrium achieved at 0.01% weight change before moving to the next step. Methods began at the humidity of the room at ambient which was measured by a Rotronic A/H hygrometer. The humidity was then increased to 90% RH before cycling to 0% RH, to 90% RH, to 0% RH. Samples weighing between 5-20mg were used.

Cc1cc(C#N)c(Nc2ccccc2[N+](=O)[O-])s1 [ROY, 5-methyl-2-[(2-nitrophenyl)amino]-3-thiophenecarbonitrile]
crystallinity of ROY sample on the basis of birefringence [1]: readily crystallizes
time to ROY crystallization upon cooling ([1]; melt of ROY alone or 1:1 molar with coformer, cooling to room temperature): within a few minutes
coamorphous phase formation in hot stage heat-cool-heat cycle [2]: confirm coamorphous phase formation
visible crystallization by polarized light microscopy ([3]; 2:1 drug:bisVCap molar ratio): no visible crystallization
visible crystallization by polarized light microscopy ([3]; 3:1 drug:bisVCap ratio): formed crystals overnight
DSC behaviour of mixture with bisVCap [4]: lacking features assignable to decomposition, recrystallization or melting endotherms in the second heating cycle

CCCCC(=O)N(Cc1ccc(-c2ccccc2-c2nnn[nH]2)cc1)[C@H](C(=O)O)C(C)C [Valsartan]
crystallinity by polarized light microscopy, drug on its own ([5]; control sample without lactam coformer, melted and cooled to room temperature): remains amorphous

CCOC(=O)c1ccc(N)cc1 [benzocaine]
crystallinity by polarized light microscopy, drug with bisVCap [5]: crystallized overnight

Cn1c(=O)c2c(ncn2C)n(C)c1=O [caffeine]
crystallinity by polarized light microscopy, drug with bisVCap [5]: crystallized overnight

NC(=O)N1c2ccccc2C=Cc2ccccc21 [carbamazepine]
crystallinity by polarized light microscopy, drug with bisVCap [5]: appear amorphous
coamorphous phase formation in hot stage heat-cool-heat cycle [2]: confirm coamorphous phase formation
visible crystallization by polarized light microscopy ([3]; 2:1 drug:bisVCap molar ratio): no visible crystallization
visible crystallization by polarized light microscopy ([3]; 3:1 drug:bisVCap ratio): formed crystals overnight
DSC behaviour of mixture with bisVCap [4]: lacking features assignable to decomposition, recrystallization or melting endotherms in the second heating cycle

CCCC(C)(COC(N)=O)COC(=O)NC(C)C (stereo not drawn) [carisoprodol]
crystallinity by polarized light microscopy, drug with bisVCap [5]: appear amorphous
coamorphous phase formation in hot stage heat-cool-heat cycle [2]: confirm coamorphous phase formation
visible crystallization by polarized light microscopy ([3]; 2:1 drug:bisVCap molar ratio): no visible crystallization
visible crystallization by polarized light microscopy ([3]; 3:1 drug:bisVCap ratio): did not show any visible crystallization
visible crystallization by polarized light microscopy ([3]; 4:1 drug:bisVCap ratio): formed crystals overnight
DSC behaviour of mixture with bisVCap [4]: lacking features assignable to decomposition, recrystallization or melting endotherms in the second heating cycle

NCCc1ccc(O)c(O)c1 [dopamine]
crystallinity by polarized light microscopy, drug with bisVCap [5]: appear amorphous

CCc1cc(C(N)=S)ccn1 [ethionamide]
crystallinity by polarized light microscopy, drug with bisVCap [5]: appear amorphous
DSC behaviour of mixture with bisVCap [4]: sharp and overlapping endothermic peaks on heating, which arise from decomposition

CC(C)Cc1ccc(C(C)C(=O)O)cc1 (stereo not drawn) [ibuprofen]
crystallinity by polarized light microscopy, drug with bisVCap [5]: appear amorphous
DSC behaviour of mixture with bisVCap [4]: sharp and overlapping endothermic peaks on heating, which arise from decomposition

NNC(=O)c1ccncc1 [isoniazid]
crystallinity by polarized light microscopy, drug with bisVCap [5]: appear amorphous
coamorphous phase formation in hot stage heat-cool-heat cycle [2]: confirm coamorphous phase formation
visible crystallization by polarized light microscopy ([3]; 2:1 drug:bisVCap molar ratio): no visible crystallization
visible crystallization by polarized light microscopy ([3]; 3:1 drug:bisVCap ratio): formed crystals overnight
DSC behaviour of mixture with bisVCap [4]: lacking features assignable to decomposition, recrystallization or melting endotherms in the second heating cycle

CN(C)C(=N)N=C(N)N [metformin]
crystallinity by polarized light microscopy, drug with bisVCap [5]: crystallized overnight

Cc1cccc(C)c1OCC(C)N (stereo not drawn) [mexiletine]
crystallinity by polarized light microscopy, drug with bisVCap [5]: appear amorphous
DSC behaviour of mixture with bisVCap [4]: sharp and overlapping endothermic peaks on heating, which arise from decomposition

Cc1c(Cl)cccc1Nc1ccccc1C(=O)O [tolfenamic acid]
crystallinity by polarized light microscopy, drug with bisVCap [5]: appear amorphous
DSC behaviour of mixture with bisVCap [4]: sharp and overlapping endothermic peaks on heating, which arise from decomposition

(bis)vinylcaprolactam [Amorphous bisVCap]
hygroscopicity [6]: not significantly hygroscopic
mass increase in DVS plot [6]: 1.2%

(bis)vinylcaprolactam [bisVCap]
stability of coamorphous phase with ROY on storage [1]: stable for prolonged periods
crystallinity of ROY sample on the basis of birefringence [1]: gives a coamorphous phase with ROY
hygroscopicity [6]: not hydroscopic

(bis)vinylcaprolactam [crystalline bisVCap]
hygroscopicity [6]: not significantly hygroscopic
mass increase in DVS plot [6]: 0.35%
